Structures can show the parent of a compound that is named as a salt.

Data set [1] is described as follows: In-vivo study in healthy rats, drug plasma concentration after 4 sprays. To be noted: rat, topical.
Procedure: A total of 4 sprays were applied (two sprays on the back and two sprays on the abdominal area of the animal) using a metered dose mechanical spray pump. Blood samples were collected at 15, 30 minutes, 1, 2, 4, 8 and 24 hours. All samples were analyzed using a validated analytical LC-MS method.
Data set [2] in a line: Solubility study for drug saturation in spray vehicle (Example 45). It is filed as physicochemical. The method, then: Solubility studies to find out concentration at which the drug is present at saturation levels were performed as follows: The drug (bupivacaine hydrochloride 2, 4, 8, 10,12 & 16 mg) was added to, propylene glycol, oleyl alcohol and menthol in ethanol under stirring and mixing till clear solution is formed. The film-forming polymer in the clear drug solution was added while stirring till polymer dissolves or hydrates completely.

For `CCCCN1CCCCC1C(=O)Nc1c(C)cccc1C` (stereo not shown) [Bupivacaine HCl], in data set [1] (8 mg strength), the concentration at 0 h was determined as 1 ng/mL, the concentration at 0.25 h was 82 ng/mL, the concentration at 0.5 h was determined as 119 ng/mL and the concentration at 1 h is 148 ng/mL. Moreover, in data set [1] (8 mg strength), the concentration at 2 h was 95 ng/mL, the concentration at 4 h was determined as 221 ng/mL, the concentration at 8 h amounted to 147 ng/mL and the concentration at 24 h was found to be 55 ng/mL. Further, in data set [1] (12 mg strength), the concentration at 0 h came to 0 ng/mL, the concentration at 0.25 h worked out at 73 ng/mL, the concentration at 0.5 h was 109 ng/mL and the concentration at 1 h worked out at 249 ng/mL. In data set [1] (12 mg strength), the concentration at 2 h stood at 180 ng/mL, the concentration at 4 h stood at 270 ng/mL, the concentration at 8 h stood at 329 ng/mL and the concentration at 24 h is 172 ng/mL. Further, the “appearance of drug solution on standing” value in data set [2] (16 mg of drug) was “precipitated out from clear solution after standing”. Besides, the “appearance of drug solution on standing” value in data set [2] (other solutions (2, 4, 8, 10, 12 mg)) is “clear and no precipitate was observed”. The “concentration at which drug saturation was achieved” value in data set [2] (propylene glycol, oleyl alcohol, menthol, ethanol, film-forming polymer) is on record as “about 12 mg per spray”.

Source of the values: US20220133641A1, “TOPICAL FILM-FORMING SPRAY” (GRACE THERAPEUTICS INC., priority 2015, published 2022).
